The numbers were not newly measured in patent US20060287301A1, “Novel formulations for phenothiazines, including fluphenazine and its derivatives” (priority 2005, published 2006), which cites them from elsewhere.

Where a name gives a salt, the structure may show the parent alone. Read-outs that look alike come from different tables or passages of the source.

For the data set the following is noted: words only.

For `OCCN1CCN(CCCN2c3ccccc3Sc3ccc(C(F)(F)F)cc32)CC1` [Fluphenazine, fluphenazine], the solubility in water result is listed as “marginally water soluble”.
As for `OCCN1CCN(CCCN2c3ccccc3Sc3ccc(C(F)(F)F)cc32)CC1` [Fluphenazine HCl], the solubility in water result (HCl) is “poorly soluble”.
